In this test the target is Keap1 (Homo sapiens (Human), UniProt Q14145). Nature of the test: HEK293 ARE luciferase assay. The class given is cell-based. As to conditions: HEK-293 ARE firefly luciferase transiently transfected cells; 18 h incubation; mean of 1 to 20 individual measurements. From the text: The purpose of this assay is to identify small molecule inhibitors of Keap1, preventing Keap1 binding to Nrf2, and thus activating the Nrf2 signalling pathway in HEK-293 ARE firefly luciferase transiently transfected cells. HEK-293 cells express wild-type Keap1 protein and therefore have low constitutive levels of Nrf2 protein and Nrf2-dependent transcription. […] When Keap1 is inhibited, Nrf2 signalling is activated, and there is an increase in luciferase expression and light emission.
Keap1, sequence (Q14145 whole entry): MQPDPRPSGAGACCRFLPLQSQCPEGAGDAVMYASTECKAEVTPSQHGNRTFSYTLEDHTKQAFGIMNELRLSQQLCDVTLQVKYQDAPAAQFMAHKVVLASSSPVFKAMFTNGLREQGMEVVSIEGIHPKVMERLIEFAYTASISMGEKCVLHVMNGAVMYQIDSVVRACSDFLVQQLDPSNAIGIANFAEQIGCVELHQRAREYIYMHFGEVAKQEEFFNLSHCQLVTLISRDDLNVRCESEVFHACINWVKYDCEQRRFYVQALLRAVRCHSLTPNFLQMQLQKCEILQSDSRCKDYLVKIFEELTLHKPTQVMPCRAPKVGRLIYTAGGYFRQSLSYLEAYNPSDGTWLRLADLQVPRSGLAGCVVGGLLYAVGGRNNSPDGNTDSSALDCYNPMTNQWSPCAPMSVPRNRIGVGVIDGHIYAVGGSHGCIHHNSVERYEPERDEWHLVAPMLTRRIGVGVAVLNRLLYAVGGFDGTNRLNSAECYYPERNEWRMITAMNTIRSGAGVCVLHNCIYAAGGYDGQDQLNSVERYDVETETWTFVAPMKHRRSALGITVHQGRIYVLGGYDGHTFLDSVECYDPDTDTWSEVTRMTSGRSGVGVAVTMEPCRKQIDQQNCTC
Cryopreserved HEK ARE luciferase cells were rapidly thawed in a 37° C. water bath and resuspended in assay culture medium (DMEM, 10% FCS, 2 mM L-glutamine). The cell suspension was pelleted by centrifugation ([…]; 300 g) using a Heraeus benchtop centrifuge. Supernatant was removed and the pellet was gently resuspended in 5 mL culture medium per vial. Cell viability and cell number was measured using an Invitrogen Countess automated cell counter (typical viability 80%), and cells were diluted to a density of 5.0×10^5 cells/mL.
Cells were then plated out into white 384-well plates (Greiner 781080) using a Multidrop Combi, 20 μL/well, to give 10,000 cells/well. As appropriate, test compounds had been added to wells prior to dispensing cells using an Echo 555 acoustic dispenser (Labcyte). Plates were left at room temperature for ˜10 min to promote even cell settling across the plate before incubation for 18 h at 37° C., 95% humidity and 5% CO2.
After 18 h incubation, plates were removed from the incubator and allowed to cool to room temperature for 30 min, before 10 μL per well SteadyGlo reagent detection reagent was added (as per manufacturer's instructions, 10 min before required 10 mL room temperature buffer was added to one vial of lyophilised substrate and inverted several times to fully dissolve). Plates were then incubated in the dark for 30 min before reading on an Envision plate reader.
Compounds were acoustically dispensed using a Labcyte Echo, using a 10 pt dose curve with a top concentration of 100 μM. Assay wells were backfilled with DMSO to a total of 60 nL to maintain 0.3% (v/v) DMSO through the assay.
The Stimulator signal was defined using 30 μM tert-butyl hydroquinone (tBHQ) and the Neutral signal by DMSO vehicle control. All calculations were performed using GeneData.
In IBIS Column Calculations, Assay Type was set to ‘Stimulator’, and the Activity Threshold was set to 50.
The mean values were calculated from anywhere from 1 to 20 individual measurements.

EC50 data for 30 compounds are collected here from patent publication US11479539B2, “Small molecule modulators of the BTB domain of Keap1” (MedImmune Limited, priority 2017, dated 2022).

Each structure is given as a SMILES string.

`COC1(c2ncc(C(F)(F)F)cn2)C=C(C#N)C(=O)C(C)(C)C1` (single isomer, unassigned) [Compound 211, 3-methoxy-5,5-dimethyl-6-oxo-3-[5-(trifluoromethyl)pyrimidin-2-yl]cyclohex-1-ene-1-carbonitrile]: a half-maximal effect (EC50) was put at 4 nM. In turn, `COC1(c2ccc(-c3cnn(C)c3)cn2)C=C(C#N)C(=O)C(C)(C)C1` (stereo not drawn) [Compound 115, 3-methoxy-5,5-dimethyl-3-[5-(1-methyl-1H-pyrazol-4-yl)pyridin-2-yl]-6-oxocyclohex-1-ene-1-carbonitrile] gave a half-maximal effective concentration (EC50) of 106 nM. The same measure for `COC1(c2ncc(F)cc2OC(F)F)C=C(C#N)C(=O)C(C)(C)C1` (single isomer, unassigned) [Compound 47, 3-(3-(difluoromethoxy)-5-fluoropyridin-2-yl)-3-methoxy-5,5-dimethyl-6-oxocyclohex-1-enecarbonitrile]: 8 nM. As for `COc1ccccc1-c1cccc(C2(OC)C=C(C#N)C(=O)C(C)(C)C2)n1` (stereo not drawn) [Compound 119, 3-methoxy-3-[6-(2-methoxyphenyl)pyridin-2-yl]-5,5-dimethyl-6-oxocyclohex-1-ene-1-carbonitrile], the figure is 141 nM; as for `COC1(c2ncc(F)cc2-c2ccc(F)cc2)C=C(C#N)C(=O)C(C)(C)C1` (stereo not drawn) [Compound 163, 3-[5-fluoro-3-(4-fluorophenyl)pyridin-2-yl]-3-methoxy-5,5-dimethyl-6-oxocyclohex-1-ene-1-carbonitrile], 54 nM. As for `COC1(c2ncc(F)cc2-c2cncc(Cl)c2)C=C(C#N)C(=O)C(C)(C)C1` (single isomer, unassigned) [Compound 88, 3-[3-(5-chloro-3-pyridyl)-5-fluoro-2-pyridyl]-3-methoxy-5,5-dimethyl-6-oxo-cyclohexene-1-carbonitrile], the figure is 9 nM; as for `COC1(c2ccc(F)cn2)C=C(C#N)C(=O)C(C)(C)C1` (stereo not drawn) [Compound 123, 3-(5-fluoropyridin-2-yl)-3-methoxy-5,5-dimethyl-6-oxocyclohex-1-ene-1-carbonitrile], 61 nM; as for `CO[C@]1(c2ncccc2C(F)F)C=C(C#N)C(=O)C2(CC2)C1` [Compound 55, (S)-7-[3-(difluoromethyl)pyridin-2-yl]-7-methoxy-4-oxospiro[2.5]oct-5-ene-5-carbonitrile], 14 nM. Take `COC1(c2ncc(F)cc2OC(F)F)C=C(C#N)C(=O)C2(CC2)C1` (stereo not drawn) [Compound 160, 7-[3-(difluoromethoxy)-5-fluoropyridin-2-yl]-7-methoxy-4-oxospiro[2.5]oct-5-ene-5-carbonitrile]: the concentration for a half-maximal effect (EC50) is 20 nM.

Compound `COC1(c2ncc(F)cc2-c2cnc(C)s2)C=C(C#N)C(=O)C(C)(C)C1` (stereo not drawn) [Compound 168, 3-[5-fluoro-3-(2-methyl-1,3-thiazol-5-yl)pyridin-2-yl]-3-methoxy-5,5-dimethyl-6-oxocyclohex-1-ene-1-carbonitrile] yielded an EC50 of 12 nM. The same measure for `COC1(c2ccc(F)cn2)C=C(C#N)C(=O)C2(CCCC2)C1` (stereo not drawn) [Compound 240, 9-(5-fluropyridin-2-yl)-9-methoxy-6-oxospiro[4.5]dec-7-ene-7-carbonitrile]: 838 nM; for `CCOC1(c2ccc(F)cn2)C=C(C#N)C(=O)C(C)(C)C1` (stereo not drawn) [Compound 145, 3-ethoxy-3-(5-fluoropyridin-2-yl)-5,5-dimethyl-6-oxocyclohex-1-ene-1-carbonitrile]: 65 nM.

`COC1(c2ncc(Cl)cc2F)C=C(C#N)C(=O)C2(CC2)C1` (stereo not drawn) [Compound 157, 7-(5-chloro-3-fluoropyridin-2-yl)-7-methoxy-4-oxospiro[2.5]oct-5-ene-5-carbonitrile] returned an EC50 of 448 nM. The same measure for `COC1CN(c2cccc(C3(OC)C=C(C#N)C(=O)C(C)(C)C3)n2)C1` (stereo not drawn) [Compound 8, 3-methoxy-3-[6-(3-methoxyazetidin-1-yl)-2-pyridyl]-5,5-dimethyl-6-oxo-cyclohexene-1-carbonitrile]: 186 nM; for `COC1(c2cccc(-c3ccnn3C)n2)C=C(C#N)C(=O)C2(CC2)C1` (stereo not drawn) [Compound 129, 7-methoxy-7-[6-(1-methyl-1H-pyrazol-5-yl)pyridin-2-yl]-4-oxospiro[2.5]oct-5-ene-5-carbonitrile]: 136 nM. As for `COC1(c2cncc(C)n2)C=C(C#N)C(=O)C(C)(C)C1` (stereo not drawn) [Compound 30, 3-methoxy-5,5-dimethyl-3-(6-methylpyrazin-2-yl)-6-oxocyclohex-1-enecarbonitrile], the figure is 458 nM; as for `COC1(c2ncc(F)cc2C)C=C(C#N)C(=O)C2(CCCC2)C1` (single isomer, unassigned) [Compound 68, 9-(5-fluoro-3-methylpyridin-2-yl)-9-methoxy-6-oxospiro[4.5]dec-7-ene-7-carbonitrile], 70 nM; as for `COC1(c2ncc(F)cc2-c2cc[nH]c(=O)c2)C=C(C#N)C(=O)C(C)(C)C1` (stereo not drawn) [Compound 192, 3-(5-fluoro-2′-oxo[1′,2′-dihydro[3,4′-bipyridine]]-2-yl)-3-methoxy-5,5-dimethyl-6-oxocyclohex-1-ene-1-carbonitrile], > 10000 nM. Turning to `COC1(c2nc(C)cs2)C=C(C#N)C(=O)C(C)(C)C1` (stereo not drawn) [Compound 142, 3-methoxy-5,5-dimethyl-3-(4-methyl-1,3-thiazol-2-yl)-6-oxocyclohex-1-ene-1-carbonitrile], the EC50 came to 60 nM. As for `COC1(c2cccc(-c3cnc(C)nc3)n2)C=C(C#N)C(=O)C2(CC2)C1` (stereo not drawn) [Compound 128, 7-methoxy-7-[6-(2-methylpyrimidin-5-yl)pyridin-2-yl]-4-oxospiro[2.5]oct-5-ene-5-carbonitrile], the figure is 145 nM. `COC1(c2ncc(F)cc2-c2cncc(C#N)c2)C=C(C#N)C(=O)C(C)(C)C1` (stereo not drawn) [Compound 184, 2′-(3-cyano-1-methoxy-5,5-dimethyl-4-oxocyclohex-2-en-1-yl)-5′-fluoro[3,3′-bypyridine]-5-carbonitrile] yielded a concentration for a half-maximal effect (EC50) of 121 nM. As for `COC1(c2ncc(F)cc2-c2cnn(C)c2C)C=C(C#N)C(=O)C(C)(C)C1` (single isomer, unassigned) [Compound 71, 3-[3-(1,5-dimethyl-1H-pyrazol-4-yl)-5-fluoropyridin-2-yl]-3-methoxy-5,5-dimethyl-6-oxocyclohex-1-ene-1-carbonitrile], the figure is 9 nM; as for `COC1(c2ncc(C)cn2)C=C(C#N)C(=O)C(C)(C)C1` (single isomer, unassigned) [Compound 204, 3-methoxy-5,5-dimethyl-3-(5-methylpyrimidin-2-yl)-6-oxocyclohex-1-ene-1-carbonitrile], 9 nM; as for `COC1(c2nc(C(F)(F)F)cs2)C=C(C#N)C(=O)C(C)(C)C1` (stereo not drawn) [Compound 141, 3-methoxy-5,5-dimethyl-6-oxo-3-[4-(trifluoromethyl)-1,3-thiazol-2-yl]cyclohex-1-ene-1-carbonitrile], 335 nM. The same measure for `COC1(c2ncc(F)cc2OC(F)F)C=C(C#N)C(=O)C(C)(C)C1` (stereo not drawn) [Compound 174, 3-[3-(difluoromethoxy)-5-fluoropyridin-2-yl]-3-methoxy-5,5-dimethyl-6-oxocyclohex-1-ene-1-carbonitrile]: 41 nM; for `COC1(c2ncc(F)cc2-c2cnc(C)nc2)C=C(C#N)C(=O)C(C)(C)C1` (single isomer, unassigned) [Compound 89, 3-[5-fluoro-3-(2-methylpyrimidin-5-yl)-2-pyridyl]-3-methoxy-5,5-dimethyl-6-oxo-cyclohexene-1-carbonitrile]: 11 nM; for `CO[C@]1(c2ncc(F)cc2-c2ccc(=O)n(C)c2)C=C(C#N)C(=O)C(C)(C)C1` [Compound 74, (S)-3-[5-fluoro-3-(1-methyl-6-oxo-3-pyridyl)-2-pyridyl]-3-methoxy-5,5-dimethyl-6-oxo-cyclohexene-1-carbonitrile]: 15 nM. The same measure for `COC1(c2ncc(F)cc2-c2ccnc(C)c2)C=C(C#N)C(=O)C(C)(C)C1` (single isomer, unassigned) [Compound 76, 3-[5-fluoro-3-(2-methyl-4-pyridyl)-2-pyridyl]-3-methoxy-5,5-dimethyl-6-oxo-cyclohexene-1-carbonitrile]: 3 nM. `COC1(c2ncc(F)cc2-c2cncc(S(=O)(=O)C(C)C)c2)C=C(C#N)C(=O)C(C)(C)C1` (single isomer, unassigned) [Compound 221, 3-{5-fluoro-5′-[(propan-2-yl)sulfonyl][3,3′-bipyridin]-2-yl}-3-methoxy-5,5-dimethyl-6-oxocyclohex-1-ene-1-carbonitrile] gave an EC50 of 8 nM.

`COC1(c2ncccc2Br)CC(C)(C)C(=O)C(C#N)=C1C` (stereo not drawn) [Compound 108, 3-(3-bromo-2-pyridyl)-3-methoxy-2,5,5-trimethyl-6-oxo-cyclohexene-1-carbonitrile] showed an EC50 of 1900 nM.
